Measured values as given in patent US20180327367A1, “MACROCYCLIC BROAD SPECTRUM ANTIBIOTICS” (priority 2015, published 2018).
Converted amounts (≈) assume the structure as drawn. Where two headings read alike, the source gives them in different places.

Experiments:
[1] = molecular target: T1, SpsB (Staphylococcus aureus signal peptidase) (Staphylococcus aureus, UniProt P0A070); assay: cell-based; assay type: biochemical; conditions: SpsB IC50, whole-cell S. aureus (USA300 background, overexpressing SpsB) as SpsB source; fluorogenic peptide substrate, kinetic read 30 min
T1 construct: This assay uses a suspension of Staphylococcus aureus cells as a source of SpsB instead of recombinant SpsB protein; endogenous in cells; host or cells: S. aureus, USA300 background, overexpressing SpsB (whole-cell suspension from frozen pellets)
T1 sequence (P0A070 whole entry): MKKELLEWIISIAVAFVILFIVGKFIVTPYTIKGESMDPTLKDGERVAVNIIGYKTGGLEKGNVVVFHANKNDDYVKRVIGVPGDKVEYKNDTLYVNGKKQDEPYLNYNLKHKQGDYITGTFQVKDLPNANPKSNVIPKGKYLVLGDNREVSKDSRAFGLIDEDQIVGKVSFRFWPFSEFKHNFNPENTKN
Description: A kinetic fluorogenic enzyme activity assay was used to assess inhibition of SpsB (Staphylococcus aureus signal peptidase) activity and IC50s were determined. This assay uses a suspension of Staphylococcus aureus cells as a source of SpsB instead of recombinant SpsB protein.
Cell preparation: Luria broth (LB) was inoculated with S. aureus (USA300 background, overexpressing SpsB) and shaken at 37° C. until an OD600 nm of 1.5-2.0 was reached (˜4 hr). The culture was then diluted to an OD600 nm of 1.0 with LB, aliquoted and centrifuged at 10,000×g for 2 mins. The supernatant was removed and the pellet was resuspended in phosphate buffer (1×PBS, 12.5 mg/L MgCl2, 25 mg/L CaCl2, 0.1% Tween-80) to an OD600 nm of 0.5, then centrifuged again at 10,000x g for 2 mins. The supernatant was removed and the pellets were frozen at −20° C.
Test compounds were prepared in DMSO at a concentration of 10 mg/mL. These compound stocks were diluted into DMSO to a concentration of 25 μg/mL and serial 3-fold dilutions were made in DMSO, for a total of 11 compound concentrations. 20 nL of each compound solution was pre-spotted into a white 384-well plate (50 μL/well polypropylene, Nunc) using acoustic fluid transfer (Echo).
Frozen S. aureus pellets were resuspended in assay buffer (1x PBS, 12.5 mg/L MgCl2, 25 mg/L CaCl2, 0.1% Tween-80) to an OD600 nm of 0.05, then mixed 1:1 (v/v) with 20 μM substrate ((Dabcyl)βAla-KPAKAAE(Edans)) in assay buffer, and this solution was added (20 μL/well) to the 384-well plate that had been pre-spotted with compound. Fluorescence intensity was then immediately read kinetically for 30 minutes with 2 minute read intervals to monitor cleavage of the internally quenched peptide substrate (excitation wavelength=340 nm, emission wavelength=490 nm, Molecular Devices Spectramax M5). Reaction rate (slope) was plotted against inhibitor concentration to derive the IC50.

[2] = system: Escherichia coli MC4100 harboring the IMP4213 (E. coli IMP); assay: microbe, parasite or virus in culture; assay type: cell-based; conditions: 35° C., 22 hours; for MIC (μg/mL) E. coli IMP: E. coli MC4100 IMP4213, increased outer-membrane permeability; for MIC: Escherichia coli, 22 h, read-out: MIC (μg/mL) E. coli IMP, E. coli MC4100 IMP4213, increased outer-membrane permeability
How it was run: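 Broth micro-dilution per CLSI in cation-adjusted Mueller Hinton Broth with 0.002% Tween-80; E. coli MC4100 carries IMP4213, raising outer-membrane permeability. Compounds tested as 2-fold serial dilutions (10 concentrations) from 4 μg/mL (protocol 2) or 0.5 μg/mL (protocol 3); inoculum OD600 0.0005, 35° C for 22 hours.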

[3] = system: Escherichia coli ATCC 25922; assay: Minimum inhibitory concentration, broth micro-dilution (CLSI), E. coli; assay type: cell-based; conditions: 35° C., 22 hours; for MIC: Escherichia coli, ATCC25922, 22 h
[4] = system: Methicillin Resistant Staphylococcus aureus strain USA 300, NRS384; assay: Minimum inhibitory concentration, broth micro-dilution (CLSI), S. aureus; assay type: cell-based; conditions: 35° C., 22 hours; for MIC: Staphylococcus aureus, MRSA / NRS 384 / USA300, 22 h
How it was run: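 Colonies grown 20 hours at 35° C were suspended in cation-adjusted Mueller Hinton Broth with 0.002% Tween-80. Cells were then added to 2-fold compound dilutions starting at 4 or 0.5 μg/mL, at OD600 0.0005.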

[5] = read-out: MIC (μg/mL) E. coli, E. coli ATCC 25922
[6] = read-out: MIC (μg/mL) S. aureus, MRSA USA 300 NRS384
[7] = E. coli ATCC 25922, read-out: MIC (μg/mL) E. coli
[8] = MRSA USA 300 NRS384, read-out: MIC (μg/mL) S. aureus

With `Cc1cc(C2CC2c2ccccc2)ccc1C(=O)N[C@@H](CCN)C(=O)N(C)[C@@H]1C(=O)N[C@@H](C)C(=O)N[C@H](C(=O)NCC#N)Cc2ccc(OCCN)c(c2)-c2cc1ccc2OCCN` (mixture of isomers) [Compound 440] the IC50 [1] was 0.81 nM, the “MIC (μg/mL) E. coli IMP” value [2] was 0.063 µg/mL and the “MIC (μg/mL) E. coli” value ([3]; E. coli ATCC 25922) was 8 µg/mL. For the same molecule, the “MIC (μg/mL) S. aureus” value ([4]; MRSA USA 300 NRS384) was 0.19 µg/mL.
With `C[C@@H]1NC(=O)[C@@H](N(C)C(=O)[C@H](CCCCN)NC(=O)c2ccc(-c3ccc(Cl)cc3)cc2)c2ccc(OCC(O)CN)c(c2)-c2cc(ccc2O)C[C@@H](C(=O)NCC#N)NC1=O` (mixture of isomers) [Compound 514] the IC50 [1] was 2 nM, the MIC [2] was 0.19 µg/mL and the MIC [3, 5] was 32 µg/mL. For the same molecule, the MIC [4, 6] was 0.25 µg/mL.
`CCCCCCCCCC(=O)N[C@@H](C(=O)N[C@@H](CCN)C(=O)N(C)[C@@H]1C(=O)N[C@@H](C)C(=O)N[C@H](C(=O)NCC#N)Cc2ccc(OCCN)c(c2)-c2cc1ccc2OCCN)C(C)O` (single isomer, unassigned) [Compound 357-P2] was tested, and the IC50 [1] was 1.1 nM, the MIC [2] was 0.094 µg/mL (≈ 0.105 µM) and the MIC [3, 5] was 12 µg/mL (≈ 13.4 µM). For the same molecule, the MIC [4, 6] was 0.094 µg/mL (≈ 0.105 µM).
In the case of `CCCCCCCCC(O)C(=O)NC(CO)C(=O)N(C)C1C(=O)NC(C)C(=O)NC(C(=O)NCC#N)Cc2ccc(OCCN)c(c2)-c2cc1ccc2OCCN` (single isomer, unassigned) [Compound 393-P1], the IC50 [1] is reported as 5.9 nM, the MIC [2] is reported as 1 µg/mL (≈ 1.26 µM) and the MIC [3, 5] is reported as greater than 64 µg/mL. For the same molecule, the MIC [4, 6] was 2 µg/mL (≈ 2.52 µM).
With `CCCCCCCCC(O)C(=O)NC(CO)C(=O)N(C)C1C(=O)NC(C)C(=O)NC(C(=O)NCC#N)Cc2ccc(OCCN)c(c2)-c2cc1ccc2OCCN` (single isomer, unassigned) [Compound 393-P2] the IC50 [1] was 4.7 nM, the “MIC (μg/mL) E. coli IMP” value [2] was 2 µg/mL (≈ 2.52 µM) and the “MIC (μg/mL) E. coli” value ([3]; E. coli ATCC 25922) was greater than 64 µg/mL. The “MIC (μg/mL) S. aureus” value ([4]; MRSA USA 300 NRS384) was 1 µg/mL (≈ 1.26 µM).
In the case of `CCCCCc1ncc(C(=O)N[C@@H](CCN)C(=O)N(C)[C@@H]2C(=O)N[C@@H](C)C(=O)N[C@H](C(=O)NCC#N)Cc3ccc(OCCN)c(c3)-c3cc2ccc3OCCN)c(C)n1` [Compound 200], the IC50 [1] is reported as 2.8 nM, the MIC [3, 7] is reported as 4 µg/mL (≈ 4.83 µM) and the MIC [4, 8] is reported as 1 µg/mL (≈ 1.21 µM).
With `Cc1cc(Oc2ccc(C(C)(C)C)cc2)ccc1C(=O)N[C@@H](CCN)C(=O)N(C)[C@@H]1C(=O)N[C@@H](C)C(=O)N[C@H](C(=O)NCC#N)Cc2ccc(OCCN)c(c2)-c2cc1ccc2OCCN` [Compound 302] the IC50 [1] was 0.79 nM, the MIC [3, 5] was 0.25 µg/mL (≈ 0.277 µM) and the MIC [4, 6] was 0.031 µg/mL (≈ 0.0343 µM).
`C[C@@H]1NC(=O)[C@@H](N(C)C(=O)[C@H](CCCCN)NC(=O)c2ccc(-c3ccc(Cl)cc3)cc2)c2ccc(OCCN)c(c2)-c2cc(ccc2O)C[C@@H](C(=O)NCC#N)NC1=O` [Compound 318] showed an IC50 [1] of 0.8 nM.
For `CCCCc1ccc(-c2ccc(C(=O)N[C@@H](CN)C(=O)N(C)[C@@H]3C(=O)N[C@@H](C)C(=O)N[C@H](C(=O)N[C@@H](C)C#N)Cc4ccc(OCCN)c(c4)-c4cc3ccc4OCCN)cc2)cc1` [Compound 340], the IC50 [1] was 0.69 nM, the MIC [2] was less than 0.063 µg/mL and the MIC [3, 7] was 0.75 µg/mL (≈ 0.858 µM).
With `CCCCCCCCc1ccc(C(=O)N[C@@H](CCCN)C(=O)N(C)[C@@H]2C(=O)N[C@@H](C)C(=O)N[C@H](C(=O)NCC#N)Cc3ccc(OC)c(c3)-c3cc2ccc3OC)cc1` [Compound 471] the IC50 [1] was 10 nM, the MIC [2] was less than 0.063 µg/mL and the MIC [3, 7] was 48 µg/mL (≈ 59.3 µM).
`CCCCCCc1ccc(-c2ncc(C(=O)N[C@@H](CCN)C(=O)N(C)[C@@H]3C(=O)N[C@@H](C)C(=O)N[C@H](C(=O)NCC#N)Cc4ccc(OCCN)c(c4)-c4cc3ccc4OCCN)n2C)cc1` [Compound 507] was tested, and the MIC [2] was 0.016 µg/mL (≈ 0.0177 µM), the MIC [3, 7] was 0.75 µg/mL (≈ 0.828 µM) and the MIC [4, 8] was 0.031 µg/mL (≈ 0.0342 µM).
`CCCCc1ccc(C(=O)N[C@@H](CCCCN)CC(=O)N(C)[C@@H]2C(=O)N[C@@H](C)C(=O)N[C@H](C(=O)NCC#N)Cc3ccc(OCCN)c(c3)-c3cc2ccc3OCCN)c(C)c1` [Compound 509] was tested, and the MIC [2] was greater than 4 µg/mL, the MIC [3, 7] was greater than 64 µg/mL and the MIC [4, 8] was 3 µg/mL (≈ 3.51 µM).
